22 compounds from patent US20160311831A1, “Imidazotriazinones as PDE1 Inhibitors” (H. Lundbeck A/S, priority 2015, published 2016) can be followed below.

What all share (assay type): biochemical
For one assay, the target named is PDE1C (Homo sapiens, UniProt Q14123). The assay is described as follows: PDE1 inhibition assay (PDE1C), SPA with tritium labelled cAMP. To be noted: 15 nM tritium labelled cAMP, 1 hr at room temperature. As to the method: (§1) PDE1A, PDE1B and PDE1C assays were performed as follows: the assays was performed in 60 μL samples containing a fixed amount of the PDE1 enzym1 (sufficient to convert 20-25% of the cyclic nucleotide substrate), a buffer (50 mM HEPES pH 7.6; 10 mM MgCl2; 0.02% Tween20), 0.1 mg/mL BSA, 15 nM tritium labelled cAMP and varying amounts of inhibitors. Reactions were initiated by addition of the cyclic nucleotide substrate, and reactions were allowed to proceed for 1 hr at room temperature before being terminated through mixing with 20 μL (0.2 mg) yttrium silicate SPA beads (PerkinElmer). The beads were allowed to settle for 1 hr in the dark before the plates were counted in a Wallac 1450 Microbeta counter. The measured signals were converted to activity relative to an uninhibited control (100%) and IC50 values were calculated using XIFit (model 205, IDBS).

Another assay addresses PDE9 (Homo sapiens, UniProt O76083). The assay is described as follows: PDE9 inhibition assay, SPA with 3H-cAMP. To be noted: compound at 10 microM; 10 nM 3H-cAMP, 1 hr incubation. As to the method:
A PDE9 assay may for example, be performed as follows: The assay is performed in 60 μL samples containing a fixed amount of the relevant PDE enzyme (sufficient to convert 20-25% of the cyclic nucleotide substrate), a buffer (50 mM HEPES7.6; 10 mM MgCl2; 0.02% Tween20), 0.1 mg/mL BSA, 225 pCi of ^3H-labelled cyclic nucleotide substrate, tritium labeled cAMP to a final concentration of 5 nM and varying amounts of inhibitors. Reactions are initiated by addition of the cyclic nucleotide substrate, and reactions are allowed to proceed for one hr at room temperature before being terminated through mixing with 15 μL 8 mg/mL yttrium silicate SPA beads (Amersham). The beads are allowed to settle for one hr in the dark before the plates are counted in a Wallac 1450 Microbeta counter. The measured signal can be converted to activity relative to an uninhibited control (100%) and IC50 values can be calculated using the Xlfit extension to EXCEL.
In the context of the present invention the assay was performed in 60 uL assay buffer (50 mM HEPES pH 7.6; 10 mM MgCl2; 0.02% Tween20) containing enough PDE9 to convert 20-25% of 10 nM ^3H-cAMP and varying amounts of inhibitors. Following a 1 hr incubation the reactions were terminated by addition of 15 uL 8 mg/mL yttrium silicate SPA beads (Amersham). The beads were allowed to settle for one hr in the dark before the plates were counted in a Wallac 1450 Microbeta counter.

For the next assay, the target named is PDE1A (Homo sapiens, UniProt P54750). The assay is described as follows: PDE1 inhibition assay (PDE1A), SPA with tritium labelled cAMP. To be noted: 15 nM tritium labelled cAMP, 1 hr at room temperature. As to the method: as §1
In another assay the target is PDE1B (Homo sapiens, UniProt Q01064). The assay is described as follows: PDE1 inhibition assay (PDE1B), SPA with tritium labelled cAMP. To be noted: 15 nM tritium labelled cAMP, 1 hr at room temperature. The procedure: as §1
Chain of PDE1B (Q01064 whole entry): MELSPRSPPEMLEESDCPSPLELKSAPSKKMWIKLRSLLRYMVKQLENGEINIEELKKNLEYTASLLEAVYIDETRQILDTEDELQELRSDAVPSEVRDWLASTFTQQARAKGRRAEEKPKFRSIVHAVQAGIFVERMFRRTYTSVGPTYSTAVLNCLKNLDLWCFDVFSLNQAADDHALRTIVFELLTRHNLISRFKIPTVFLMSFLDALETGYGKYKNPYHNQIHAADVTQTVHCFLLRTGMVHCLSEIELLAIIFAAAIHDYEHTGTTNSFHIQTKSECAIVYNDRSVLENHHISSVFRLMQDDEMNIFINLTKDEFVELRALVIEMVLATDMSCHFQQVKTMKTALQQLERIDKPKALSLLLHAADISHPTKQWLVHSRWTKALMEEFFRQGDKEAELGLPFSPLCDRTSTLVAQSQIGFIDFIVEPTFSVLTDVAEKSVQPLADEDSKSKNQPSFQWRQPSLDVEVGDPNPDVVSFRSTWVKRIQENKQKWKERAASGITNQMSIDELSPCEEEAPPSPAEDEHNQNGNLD

Chain of PDE9 (O76083 whole entry): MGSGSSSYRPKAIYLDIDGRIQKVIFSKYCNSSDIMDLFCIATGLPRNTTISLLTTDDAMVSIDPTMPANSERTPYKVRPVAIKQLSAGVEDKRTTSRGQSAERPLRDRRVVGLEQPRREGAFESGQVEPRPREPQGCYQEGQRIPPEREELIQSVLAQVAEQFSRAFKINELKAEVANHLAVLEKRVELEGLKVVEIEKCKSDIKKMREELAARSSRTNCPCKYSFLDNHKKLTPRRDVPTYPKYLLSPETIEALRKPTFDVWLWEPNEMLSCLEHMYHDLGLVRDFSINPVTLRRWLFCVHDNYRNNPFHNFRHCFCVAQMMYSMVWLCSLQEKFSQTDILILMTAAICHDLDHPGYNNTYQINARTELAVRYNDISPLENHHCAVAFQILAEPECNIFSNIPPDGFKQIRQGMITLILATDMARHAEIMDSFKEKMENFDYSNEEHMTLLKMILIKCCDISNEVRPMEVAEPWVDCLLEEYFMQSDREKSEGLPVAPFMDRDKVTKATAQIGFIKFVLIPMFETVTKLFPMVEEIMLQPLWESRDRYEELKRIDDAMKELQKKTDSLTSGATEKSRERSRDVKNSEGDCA
Chain of PDE1A (P54750 whole entry): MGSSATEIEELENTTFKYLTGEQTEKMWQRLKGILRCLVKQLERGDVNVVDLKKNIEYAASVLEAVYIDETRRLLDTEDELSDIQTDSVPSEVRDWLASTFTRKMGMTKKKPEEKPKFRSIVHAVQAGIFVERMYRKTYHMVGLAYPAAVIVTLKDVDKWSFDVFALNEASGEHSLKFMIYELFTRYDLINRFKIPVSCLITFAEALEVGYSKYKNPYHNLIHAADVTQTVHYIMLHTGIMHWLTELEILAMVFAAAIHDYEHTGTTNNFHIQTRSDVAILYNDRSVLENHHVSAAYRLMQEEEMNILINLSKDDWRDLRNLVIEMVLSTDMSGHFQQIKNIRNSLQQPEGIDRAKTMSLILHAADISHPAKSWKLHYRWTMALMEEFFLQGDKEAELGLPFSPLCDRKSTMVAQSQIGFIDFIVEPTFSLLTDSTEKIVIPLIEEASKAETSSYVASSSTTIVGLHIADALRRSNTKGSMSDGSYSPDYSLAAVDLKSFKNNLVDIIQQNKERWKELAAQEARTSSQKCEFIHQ
Chain of PDE1C (Q14123 whole entry): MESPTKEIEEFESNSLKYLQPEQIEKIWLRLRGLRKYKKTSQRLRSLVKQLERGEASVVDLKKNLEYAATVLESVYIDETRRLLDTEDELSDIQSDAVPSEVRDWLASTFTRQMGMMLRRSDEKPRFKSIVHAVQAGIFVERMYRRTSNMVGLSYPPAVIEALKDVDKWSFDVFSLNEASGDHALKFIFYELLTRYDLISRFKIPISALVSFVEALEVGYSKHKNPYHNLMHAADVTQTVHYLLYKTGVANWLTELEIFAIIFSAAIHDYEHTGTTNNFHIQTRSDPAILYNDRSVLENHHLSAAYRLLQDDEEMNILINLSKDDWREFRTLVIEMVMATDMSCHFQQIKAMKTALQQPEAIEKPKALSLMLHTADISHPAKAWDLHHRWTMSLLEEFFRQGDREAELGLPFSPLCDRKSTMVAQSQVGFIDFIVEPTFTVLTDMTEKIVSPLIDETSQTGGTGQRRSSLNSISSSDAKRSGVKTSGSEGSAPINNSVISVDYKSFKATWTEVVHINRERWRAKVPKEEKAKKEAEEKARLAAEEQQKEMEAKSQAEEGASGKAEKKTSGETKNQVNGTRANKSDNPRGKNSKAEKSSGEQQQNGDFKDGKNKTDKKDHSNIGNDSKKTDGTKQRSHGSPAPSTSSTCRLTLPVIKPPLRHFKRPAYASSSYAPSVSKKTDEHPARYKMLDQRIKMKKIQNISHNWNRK

As usually defined, the IC50 is the midpoint of a concentration-inhibition curve. Low readings indicate higher potency, high ones lower potency. By inhibition is commonly meant the drop in the measured response relative to a control, in per cent. Regarding `O=c1c2cnc(C3CCOCC3)n2ncn1Cc1cccc(F)c1` [Example 27, 3-(3-Fluorobenzyl)-7-(tetrahydro-2H-pyran-4-yl)imidazo[5,1-f][1,2,4]triazin-4(3H)-one], on PDE1C, the IC50 came to 436 nM. Further, the inhibition at 10 µM at PDE9 was 17%.

As to `Cc1ccc(Cc2nn3c(C4CCOCC4)ncc3c(=O)n2CC2CCOCC2)cc1` [Example 9, 2-(4-Methylbenzyl)-7-(tetrahydro-2H-pyran-4-yl)-3-((tetrahydro-2H-pyran-4-yl)methyl)imidazo[5,1-f][1,2,4]triazin-4(3H)-one], the IC50 on PDE1C was 23 nM; on PDE1A it was 583 nM; at PDE1B it was 364 nM. The inhibition at 10 µM on PDE9 is 12%.

On to `O=c1c2cnc(C3CCOCC3)n2ncn1CC1CCCCCC1` [Example 29, 3-(Cycloheptylmethyl)-7-(tetrahydro-2H-pyran-4-yl)imidazo[5,1-f][1,2,4]triazin-4(3H)-one], for which the IC50 against PDE1C is 25 nM; on PDE1A, 33 nM; against PDE1B it was 52 nM. Further, on PDE9, the inhibition at 10 µM came to 21%.

For the compound `COc1ccc(Cn2c(C)nn3c(C4CCOCC4)ncc3c2=O)cc1` [Example 23, 3-(4-Methoxybenzyl)-2-methyl-7-(tetrahydro-2H-pyran-4-yl)imidazo[5,1-f][1,2,4]triazin-4(3H)-one], the IC50 was 21 nM at PDE1C, 29 nM against PDE1A and 26 nM against PDE1B. In addition, the inhibition at 10 µM against PDE9 is -4%.

Consider `Cc1nn2c(C3CCOCC3)ncc2c(=O)n1Cc1cccc(F)c1` [Example 13, 3-(3-Fluorobenzyl)-2-methyl-7-(tetrahydro-2H-pyran-4-yl)imidazo[5,1-f][1,2,4]triazin-4(3H)-one], for which the IC50 turned out to be 29 nM against PDE1C, 127 nM on PDE1A and 258 nM against PDE1B. Besides, the inhibition at 10 µM against PDE9 was -4%.

Take `CCCn1c(Cc2ccc(C)cc2)nn2c(C3CCOCC3)ncc2c1=O` [Example 4, 2-(4-Methylbenzyl)-3-propyl-7-(tetrahydro-2H-pyran-4-yl)imidazo[5,1-f][1,2,4]triazin-4(3H)-one]: the values for the half-maximal inhibitory concentration (IC50) on PDE1C, against PDE1A and against PDE1B were 61 nM, 83 nM and 40 nM, respectively. Moreover, the inhibition at 10 µM against PDE9 stood at 9%.

Regarding `Cc1ccccc1Cn1c(C)nn2c(C3CCOCC3)ncc2c1=O` [Example 21, 2-Methyl-3-(2-methylbenzyl)-7-(tetrahydro-2H-pyran-4-yl)imidazo[5,1-f][1,2,4]triazin-4(3H)-one], the half-inhibitory concentration (IC50) on PDE1C was 37 nM; at PDE1A it was 367 nM; on PDE1B, 454 nM. For the same compound, the inhibition at 10 µM against PDE9 worked out at 13%.

On to `Cc1ccc(Cc2nn3c(C4CCOCC4)ncc3c(=O)n2CC2CC2)cc1` [Example 8, 3-(Cyclopropylmethyl)-2-(4-methylbenzyl)-7-(tetrahydro-2H-pyran-4-yl)imidazo[5,1-f][1,2,4]triazin-4(3H)-one], for which the IC50 against PDE1C amounted to 78 nM; against PDE1A, 63 nM; on PDE1B, 103 nM. Besides, the inhibition at 10 µM on PDE9 worked out at 9%.

Regarding `Cc1nn2c(C3CCOCC3)ncc2c(=O)n1Cc1ccccc1` [Example 15, 3-Benzyl-2-methyl-7-(tetrahydro-2H-pyran-4-yl)imidazo[5,1-f][1,2,4]triazin-4(3H)-one], the IC50 turned out to be 17 nM against PDE1C, 70 nM against PDE1A and 162 nM at PDE1B. Besides, the inhibition at 10 µM at PDE9 was -13%.

As for `CCc1nn2c(C3CCOCC3)ncc2c(=O)n1Cc1cccc(F)c1` [Example 25, 2-Ethyl-3-(3-fluorobenzyl)-7-(tetrahydro-2H-pyran-4-yl)imidazo[5,1-f][1,2,4]triazin-4(3H)-one], the concentration for half-maximal inhibition (IC50) against PDE1C worked out at 15 nM; at PDE1A, 52 nM; against PDE1B, 131 nM. In addition, the inhibition at 10 µM against PDE9 was determined as 8%.

For `Cc1ccc(Cc2nn3c(C4CCOCC4)ncc3c(=O)n2CC(C)C)cc1` [Example 5, 3-isobutyl-2-(4-methylbenzyl)-7-(tetrahydro-2H-pyran-4-yl)imidazo[5,1-f][1,2,4]triazin-4(3H)-one], the values for the IC50 at PDE1C, against PDE1A and on PDE1B were 38 nM, 47 nM and 52 nM, respectively. For the same compound, the inhibition at 10 µM at PDE9 was -3%.

Regarding `Cc1cccc(Cn2c(C)nn3c(C4CCOCC4)ncc3c2=O)c1` [Example 18, 2-Methyl-3-(3-methylbenzyl)-7-(tetrahydro-2H-pyran-4-yl)imidazo[5,1-f][1,2,4]triazin-4(3H)-one], the IC50 against PDE1C turned out to be 20 nM; at PDE1A, 265 nM; against PDE1B it was 188 nM. The inhibition at 10 µM against PDE9 is -30%.

As for `Cc1nn2c(C3CCOCC3)ncc2c(=O)n1Cc1ccccc1F` [Example 20, 3-(2-Fluorobenzyl)-2-methyl-7-(tetrahydro-2H-pyran-4-yl)imidazo[5,1-f][1,2,4]triazin-4(3H)-one], the results for the half-maximal inhibitory concentration (IC50) against PDE1C, against PDE1A and at PDE1B were 15 nM, 54 nM and 139 nM, respectively. Further, at PDE9, the inhibition at 10 µM amounted to 21%.

On to `Cc1nn2c(C3CCOCC3)ncc2c(=O)n1Cc1ccc(Cl)cc1` [Example 24, 3-(4-Chlorobenzyl)-2-methyl-7-(tetrahydro-2H-pyran-4-yl)imidazo[5,1-f][1,2,4]triazin-4(3H)-one], for which the IC50 amounted to 104 nM at PDE1C, 35 nM at PDE1A and 61 nM against PDE1B. Moreover, the inhibition at 10 µM against PDE9 was -11%.

On to `Cc1ccc(Cc2nn3c(C4CCOCC4)ncc3c(=O)n2CC2CCC(C)CC2)cc1` (single isomer, unassigned) [11 Stereoisomer 1], for which the figures for the 50% inhibitory concentration (IC50) against PDE1C, at PDE1A and against PDE1B were 69 nM, 43 nM and 33 nM, respectively. The “% inhibition of PDE9 at 10 microM” value at PDE9 is recorded as −9%.

Turning to `COc1cccc(Cn2c(C)nn3c(C4CCOCC4)ncc3c2=O)c1` [Example 19, 3-(3-Methoxybenzyl)-2-methyl-7-(tetrahydro-2H-pyran-4-yl)imidazo[5,1-f][1,2,4]triazin-4(3H)-one], the IC50 was 52 nM at PDE1C, 115 nM against PDE1A and 259 nM against PDE1B. Also, the inhibition at 10 µM against PDE9 was 4%.

Regarding `Cc1nn2c(C3CCOCC3)ncc2c(=O)n1Cc1cccc(Cl)c1` [Example 17, 3-(3-Chlorobenzyl)-2-methyl-7-(tetrahydro-2H-pyran-4-yl)imidazo[5,1-f][1,2,4]triazin-4(3H)-one], the IC50 against PDE1C turned out to be 14 nM; on PDE1A it was 63 nM; against PDE1B it was 159 nM. Further, the inhibition at 10 µM against PDE9 came out at 5%.

Take `Cc1ccc(Cc2nn3c(C4CCOCC4)ncc3c(=O)n2CC2CCC(C)CC2)cc1` (single isomer, unassigned) [11 Stereoisomer 2]: the concentration for half-maximal inhibition (IC50) against PDE1C amounted to 5 nM; against PDE1A it was 8 nM; against PDE1B, 10 nM. The “% inhibition of PDE9 at 10 microM” value on PDE9 is 15%.

`Cc1ccc(Cc2nn3c(C4CCOCC4)ncc3c(=O)n2C)cc1` [Example 2, 3-Methyl-2-(4-methylbenzyl)-7-(tetrahydro-2H-pyran-4-yl)imidazo[5,1-f][1,2,4]triazin-4(3H)-one]: the IC50 on PDE1C was determined as 984 nM; against PDE1A, 732 nM; on PDE1B, 258 nM. For the same compound, the inhibition at 10 µM against PDE9 is 4%.

As for `Cc1ccc(Cn2c(C)nn3c(C4CCOCC4)ncc3c2=O)cc1` [Example 22, 2-Methyl-3-(4-methylbenzyl)-7-(tetrahydro-2H-pyran-4-yl)imidazo[5,1-f][1,2,4]triazin-4(3H)-one], the IC50 against PDE1C came out at 77 nM; against PDE1A, 58 nM; at PDE1B, 66 nM. Further, the inhibition at 10 µM on PDE9 turned out to be 18%.

For the compound `Cc1ccc(Cc2nn3c(C4CCOCC4)ncc3c(=O)n2CC2CCOC2)cc1` (single isomer, unassigned) [12 Stereoisomer 1], the IC50 on PDE1C was found to be 105 nM; on PDE1B it was 258 nM. Also, the “% inhibition of PDE9 at 10 microM” value on PDE9 turned out to be 3%.

In the case of `O=c1c2cnc(C3CCOCC3)n2ncn1CC1CCCC1` [Example 28, 3-(Cyclopentylmethyl)-7-(tetrahydro-2H-pyran-4-yl)imidazo[5,1-f][1,2,4]triazin-4(3H)-one], on PDE1C, half-maximal inhibition (IC50) was put at 86 nM. For the same compound, the inhibition at 10 µM on PDE9 worked out at 10%.
